Three compounds from patent US8980920B2, “Antiviral compounds of three linked aryl moieties to treat diseases such as hepatitis C” (Merck Sharp & Dohme Corp., priority 2009, dated 2015) can be followed below.

In one test the test system is HCV replicon 1b Y93H. Nature of the test: Cell-based HCV replicon assay, genotype 1b Y93H. The note with it: Hepatitis C virus, 72 h, read-out: EC50 1b Y93H. Here is the method:
(§1) To measure cell-based anti-HCV activity of selected compounds of the present invention, the following replicon assay can be used.
(§2) Replicon cells are seeded at 5000 cells/well in 96-well collagen I-coated Nunc plates in the presence of the test compound. Various concentrations of test compound, typically in 10 serial 2-fold dilutions, are added to the assay mixture, with the starting concentration ranging from 10 μM to 0.001 μM. The final concentration of DMSO should be about 0.5%, and the final concentration of fetal bovine serum should be about 5%, in the assay media. Cells are harvested on day 3 by the addition of 1× cell lysis buffer (Ambion cat #8721). The replicon RNA level is then measured (using, for example, the real time PCR (Taqman assay)). The amplicon is located in 5B. The PCR primers are: 5B.2F, ATGGACAGGCGCCCTGA (SEQ ID NO. 1); 5B.2R, […] (SEQ ID NO. 2); the probe sequence is FAM-labeled CACGCCATGCGCTGCGG (SEQ ID NO. 3). […] Alternatively, to quantitate the absolute amount of replicon RNA, a standard curve can be established by including serially diluted T7 transcripts of replicon RNA in the Taqman assay. […]
(§3) HCV replicon assay data was calculated for various genotypes for selected compounds of the present invention using this method and is provided in the table below.
On the technique in general: A replicon is a self-replicating genome or part of one, used to study replication in cells.

The test system of a further test is HCV replicon 1a 1A7. The test is described as follows: Cell-based HCV replicon assay, genotype 1a 1A7. The conditions noted are these: Hepatitis C virus, 72 h; replicon cells, genotype 1a 1A7, replicon RNA by Taqman on day 3. As for the experimental part: as §1, §2, §3
In the next test the test system is HCV replicon 2a JFH. Nature of the test: Cell-based HCV replicon assay, genotype 2a JFH. The note with it: Hepatitis C virus, 72 h, replicon cells, replicon RNA by Taqman on day 3. Here is the method:
as §1, §2, §3

The subject of another test is HCV replicon 1b c16. Nature of the test: Cell-based HCV replicon assay, genotype 1b c16. The conditions noted are these: Hepatitis C virus, 72 h; replicon cells, genotype 1b c16, replicon RNA by Taqman on day 3. Here is the method:
as §1
Replicon cells are seeded at 5000 cells/well in 96-well collagen I-coated Nunc plates in the presence of the test compound. Various concentrations of test compound, typically in 10 serial 2-fold dilutions, are added to the assay mixture, with the starting concentration ranging from 10 μM to 0.001 μM. The final concentration of DMSO should be about 0.5%, and the final concentration of fetal bovine serum should be about 5%, in the assay media. Cells are harvested on day 3 by the addition of 1× cell lysis buffer (Ambion cat #8721). The replicon RNA level is then measured (using, for example, the real time PCR (Taqman assay)). The amplicon is located in 5B. The PCR primers are: 5B.2F, ATGGACAGGCGCCCTGA (SEQ ID NO. 1); 5B.2R, […] (SEQ ID NO. 2); the probe sequence is FAM-labeled CACGCCATGCGCTGCGG (SEQ ID NO. 3). GAPDH RNA is to be used as endogenous control and is amplified in the same reaction as NS5B (multiplex PCR) using the primers and the VIC-labeled probe recommended by the manufacturer (PE Applied Biosystems). The real-time RT-PCR reactions can be run on an ABI PRISM 7900HT Sequence Detection System using the following program: 48° C. for 30 minutes, 95° C. for 10 minutes, 40 cycles of 95° C. for 15 sec, 60° C. for 1 minute. The ΔCT values (CT5B-CTGAPDH) are then plotted against the concentration of test compound and fitted to the sigmoid dose-response model using XLfit4 (MDL). EC50 is defined as the concentration of inhibitor necessary to achieve ΔCT=1 over the projected baseline; EC90 is defined as the concentration necessary to achieve ΔCT=3.2 over the baseline. Alternatively, to quantitate the absolute amount of replicon RNA, a standard curve can be established by including serially diluted T7 transcripts of replicon RNA in the Taqman assay. […]
as §3

With `COC(=O)N[C@H](C(=O)N1CCC[C@@H]1c1ncc(-c2ccc(C#Cc3ccc4nc([C@@H]5CCCN5C(=O)[C@@H](NC(=O)OC)C(C)C)[nH]c4c3)cc2)[nH]1)C(C)C` [Compound 56], the EC50 – broadly, the concentration at which the effect is half-maximal – with HCV replicon 1b Y93H is 5 nM; in the test on HCV replicon 1a 1A7, 0.3 nM; with HCV replicon 2a JFH, 0.3 nM; in the test on HCV replicon 1b c16, 0.016 nM.

`COC(=O)N[C@@H](C(=O)N1CCC[C@@H]1c1ncc(-c2ccc(C#Cc3ccc4nc([C@@H]5CCCN5C(=O)[C@H](NC(=O)OC)c5ccccc5)[nH]c4c3)cc2)[nH]1)c1ccccc1` [Compound 57]: the EC50 in the test on HCV replicon 1b Y93H worked out at 0.5 nM; with HCV replicon 1a 1A7, 0.41 nM; in the test on HCV replicon 2a JFH, 0.019 nM; in the test on HCV replicon 1b c16 it was 0.001 nM.

With `CC(C)(C)OC(=O)N1CCC[C@H]1c1ncc(-c2ccc(C#Cc3ccc4nc([C@@H]5CCCN5C(=O)OC(C)(C)C)[nH]c4c3)cc2)[nH]1` [Compound 58], the EC50 in the test on HCV replicon 1b c16 came out at 251 nM.
